For this test, the system named is HIV-infected cells. Briefly: p24 protein production inhibiting effect (in vitro), quantitation of p24 protein by ELISA. It is filed as cell-based. Particulars: for content of p24 protein, Day 1: control 569542; for content of p24 protein, Day 5: control 902226; for content of p24 protein, Day 0: control 0. On the procedure:
p24 Protein Production Inhibiting Effect (in vitro)
Quantitation of p24 protein was conducted by ELISA.
HIV-infected cells were lysed in a lysis buffer, and were poured in predetermined constant aliquots into the individual wells of a 96-well microplate. Subsequent to adsorption of an antigen, a solution of a biotinylated anti-p24 monoclonal antibody was added. A streptavidin-labeled peroxidase was added, followed by the addition of a substrate for staining. One, three and five days later or 2 and 4 days later, a terminating solution was added to terminate the reaction. Concerning each of the wells, the absorbance at 450 nm was measured to determine the content of p24 protein in the well.
A general note: ELISA stands for enzyme-linked immunosorbent assay.

Where [1] appears, read: Table 5, compound at 1.60 µg/mℓ, control 349386.
The mark [2] stands for this setting: Table 5, compound at 1.60 µg/mℓ, control 435119.

Structures can show the parent of a compound that is named as a salt.

Results on 16 compounds are retold here after patent publication EP1074545A1, “ISOQUINOLINESULFONAMIDE DERIVATIVES AND DRUGS CONTAINING THE SAME AS THE ACTIVE INGREDIENT” (Hidaka, Hiroyoshi, priority 1998, dated 1999).

For the compound `O=S(=O)(c1cccc2c(O)nccc12)N1CCCNCC1` [Example 6, 1-(1-Hydroxy-5-isoquinolinesulfonyl)hexahydro-1H-1,4-diazepine·monohydrochloride], under “Table 1, compound at 20 µg/m”, the “content of p24 protein, Day 1” value is 551489 pg/mL and the “content of p24 protein, Day 5” value was determined as 698489 pg/mL. The “content of p24 protein, Day 2” value (Table 1, compound at 20 µg/m, control 881594) came out at 645621 pg/mL.

`O=S(=O)(c1cccc2cncc(F)c12)N1CCCNCC1` [Example 55, 1-(4-Fluoro-5-isoquinolinesulfonyl)hexahydro-1H-1,4-diazepine]: the “content of p24 protein, Day 4” value (Table 3, compound at 4 µg/mℓ, control 82079) came to 59487 pg/mL. The “content of p24 protein, Day 2” value (Table 3, compound at 4 µg/mℓ, control 104484) came out at 59487 pg/mL.

For the compound `CCCCCCOc1ncc(C)c2c(S(=O)(=O)N3CCCNCC3)cccc12` [Example 14, 1-(1-n-Hexyloxy-4-methyl-5-isoquinolinesulfonyl)hexahydro-1H-1,4-diazepine], for the setting “Table 2, compound at 8 µg/mℓ”, the “content of p24 protein, Day 0” value came to 0 pg/m. The “content of p24 protein, Day 2” value (Table 2, compound at 8 µg/mℓ, control 46732) is listed as 1022 pg/m. The “content of p24 protein, Day 4” value (Table 2, compound at 8 µg/mℓ, control 104484) is 0 pg/m.

`Cc1cnc(OC(C)C)c2cccc(S(=O)(=O)N3CCCNCC3)c12` [Example 22, 1-(1-Isopropyloxy-4-methyl-5-isoquinolinesulfonyl)hexahydro-1H-1,4-diazepine]: the “content of p24 protein, Day 4” value (Table 4, compound at 1.60 µg/mℓ, control 38991) was found to be 20897 pg/mL. Moreover, the “content of p24 protein, Day 2” value (Table 4, compound at 1.60 µg/mℓ, control 58304.5) was 17405 pg/mL.

Take `Cc1cnc(OCc2c(F)c(F)c(F)c(F)c2F)c2cccc(S(=O)(=O)N3CCCNCC3)c12` [Example 48, 1-(4-Methyl-1-pentafluorophenylmethyloxy-5-isoquinolinesulfonyl)hexahydro-1H-1,4-diazepine]: the “content of p24 protein, Day 4” value under setting [1] turned out to be 297434 pg/mL. In addition, the “content of p24 protein, Day 2” value under setting [2] turned out to be 82082 pg/mL.

Regarding `CCCCCCCCOc1ncc(C)c2c(S(=O)(=O)N3CCCNCC3)cccc12` [Example 20, 1-(4-Methyl-1-n-octyloxy-5-isoquinolinesulfonyl)hexahydro-1H-1,4-diazepine], the “content of p24 protein, Day 4” value (Table 4, compound at 0.32 µg/mℓ, control 38991) worked out at 31250 pg/mL. For the same compound, the “content of p24 protein, Day 2” value (Table 4, compound at 0.32 µg/mℓ, control 58304.5) stood at 31250 pg/mL.

Turning to `CCCCC(CC)COc1ncc(C)c2c(S(=O)(=O)N3CCCNCC3)cccc12` (stereo not shown) [Example 25, 1-(1-(2-Ethyl)hexyloxy-4-methyl-5-isoquinolinesulfonyl)hexahydro-1H-1,4-diazepine], the “content of p24 protein, Day 4” value (Table 4, compound at 4.00 µg/mℓ, control 38991) was 16416 pg/mL. In addition, the “content of p24 protein, Day 2” value (Table 4, compound at 4.00 µg/mℓ, control 58304.5) was 25557 pg/mL.

On to `CNc1ncc(C)c2c(S(=O)(=O)N3CCCNCC3)cccc12` [Example 41, 1-(4-Methyl-1-N-methylamino-5-isoquinolinesulfonyl)hexahydro-1H-1,4-diazepine], for which the “content of p24 protein, Day 0” value (Table 2, compound at 0.8 µg/mℓ) is recorded as 0 pg/m. Further, the “content of p24 protein, Day 2” value (Table 2, compound at 0.8 µg/mℓ, control 46732) was 82082 pg/m. For the setting “Table 2, compound at 0.8 µg/mℓ, control 104484”, the “content of p24 protein, Day 4” value came to 66977 pg/m.

Turning to `Cc1cnc(O)c2cccc(S(=O)(=O)N3CCCNC(C)C3)c12` (stereo not shown) [Example 36, 1-(1-Hydroxy-4-methyl-5-isoquinolinesulfonyl)-3-methylhexahydro-1H-1,4-diazepine·monohydrochloride], where the note is “Table 5, compound at 3.20 µg/mℓ, control 349386”, the “content of p24 protein, Day 4” value was determined as 82082 pg/mL. Further, the “content of p24 protein, Day 2” value (Table 5, compound at 3.20 µg/mℓ, control 435119) was found to be 104484 pg/mL.

In the case of `CCCCCCOc1ncc(C)c2c(S(=O)(=O)N3CCCNCC3C)cccc12` (stereo not shown) [Example 53, 1-(1-n-Hexyloxy-4-methyl-5-isoquinolinesulfonyl)2-methylhexahydro-1H-1,4-diazepine], the “content of p24 protein, Day 4” value (Table 5, compound at 40.0 µg/mℓ, control 349386) worked out at 233662 pg/mL. Also, the “content of p24 protein, Day 2” value (Table 5, compound at 40.0 µg/mℓ, control 435119) was found to be 94822 pg/mL.

With `Cc1cncc2cccc(S(=O)(=O)N3CCNCC3)c12` [Example 29, 1-(4-Methyl-5-isoquinolinesulfonyl)piperazine], the “content of p24 protein, Day 0” value (Table 2, compound at 0.32 µg/mℓ) came to 0 pg/m. Besides, for the setting “Table 2, compound at 0.32 µg/mℓ, control 46732”, the “content of p24 protein, Day 2” value is 69877 pg/m. Moreover, under “Table 2, compound at 0.32 µg/mℓ, control 104484”, the “content of p24 protein, Day 4” value worked out at 69877 pg/m.

For the compound `CCCCCCOc1nccc2c(S(=O)(=O)N3CCCNCC3)cccc12` [Example 28, 1-(1-Hexyloxy-5-isoquinolinesulfonyl)hexahydro-1H-1,4-diazepine], the “content of p24 protein, Day 4” value under setting [1] is 69877 pg/mL. In addition, under setting [2], the “content of p24 protein, Day 2” value is 156250 pg/mL.

On to `CCCCCCCCCCCCCCCCCCOc1ncc(C)c2c(S(=O)(=O)N3CCCNCC3)cccc12` [Example 21, 1-(4-Methyl-1-n-octadecyloxy-5-isoquinolinesulfonyl)hexahydro-1H-1,4-diazepine], for which the “content of p24 protein, Day 4” value (Table 4, compound at 0.16 µg/mℓ, control 38991) came out at 31250 pg/mL. Further, for the setting “Table 4, compound at 0.16 µg/mℓ, control 58304.5”, the “content of p24 protein, Day 2” value was found to be 31250 pg/mL.

With `Cc1cncc2c(S(=O)(=O)N3CCCNCC3)cccc12` [Example 66, 1-(4-Methyl-8-isoquinolinesulfonyl)hexahydro-1H-1,4-diazepine], for the setting “Table 4, compound at 200 µg/mℓ, control 38991”, the “content of p24 protein, Day 4” value worked out at 20897 pg/mL. Besides, the “content of p24 protein, Day 2” value (Table 4, compound at 200 µg/mℓ, control 58304.5) came to 25557 pg/mL.

Take `C=CCOc1ncc(C)c2c(S(=O)(=O)N3CCCNCC3)cccc12` [Example 46, 1-(1-Allyloxy-4-methyl-5-isoquinolinesulfonyl)hexahydro-1H-1,4-diazepine]: the “content of p24 protein, Day 4” value (Table 5, compound at 8.00 µg/mℓ, control 349386) was found to be 156250 pg/mL. Under “Table 5, compound at 8.00 µg/mℓ, control 435119”, the “content of p24 protein, Day 2” value was 233662 pg/mL.

Regarding `Cc1cnc(O)c2cccc(S(=O)(=O)N3CCCNCC3C)c12` (stereo not shown) [Example 51, 1-(1-Hydroxy-4-methyl-5-isoquinolinesulfonyl)2-methylhexahydro-1H-1,4-diazepine·monohydrochloride], under “Table 1, compound at 10 µg/m”, the “content of p24 protein, Day 1” value came out at 641752 pg/mL and the “content of p24 protein, Day 5” value was 566963 pg/mL. In addition, the “content of p24 protein, Day 2” value (Table 1, compound at 10 µg/m, control 881594) is 624989 pg/mL.
